The text below walks through data of article PMC4862498, “PI4 Kinase Is a Prophylactic but Not Radical Curative Target in Plasmodium vivax-Type Malaria Parasites” (Antimicrobial Agents and Chemotherapy, 2016).

Molecules are shown by their SMILES. Values joined by “and” are separate entries in the source; they are usually repeats but may differ in a detail not shown here. Equal values may be shown once. “Also recorded” adds a separate entry of the source.

Assay [1] concerns P. cynomolgi hypnozoites in primary rhesus hepatocytes. Put plainly: In vitro liver-stage drug assay with P. cynomolgi, small forms (hypnozoites). Type of assay: cell-based, Plasmodium cynomolgi. Particulars: compound exposure 6 days, mean of several (9) independent assays, read-out: IC50 against hypnozoites (small forms). The procedure: (§1) In vitro infections of primary rhesus hepatocytes with P. cynomolgi sporozoites were performed according to methods described previously by Zeeman et al. ([10]). At day 6 postinfection (p.i.), the assay mixtures were fixed and stained with anti-P. cynomolgi Hsp70 rabbit antiserum and a fluorescein isothiocyanate (FITC)-labeled secondary antibody (goat anti-rabbit). Plates were analyzed with the Operetta high-content imaging system, differentially counting hypnozoites and developing extraerythrocytic forms (EEFs), based on parasite size ([10]).
(§2) In vitro activity against P. cynomolgi liver stages was determined for both compounds. The numbers of small (hypnozoites) and large (developing EEFs) parasites were determined by using Operetta and image analysis of primary rhesus hepatocyte cultures infected with P. cynomolgi sporozoites and exposed to the compound for 6 days ([10]). […] IC50s were determined by using the least-squares nonlinear regression method (Prism) for small and large parasites. Data from several independent experiments were used to calculate the IC50s for the two compounds.

Assay [2] relates to P. cynomolgi developing EEFs (liver schizonts) in primary rhesus hepatocytes. Put plainly: In vitro liver-stage drug assay with P. cynomolgi, large forms (developing EEFs / liver schizonts). Format: cell-based, Plasmodium cynomolgi. The note with it: compound exposure 6 days, mean of several (9) independent assays, read-out: IC50 against developing EEFs / liver schizonts (large forms). How it is done: as §1, §2

Assay [3] relates to P. cynomolgi sporozoite-infected rhesus macaques. Put plainly: Causal prophylaxis in P. cynomolgi sporozoite-infected rhesus macaques. Type of assay: in vivo, Plasmodium cynomolgi. Particulars: 20 mg/kg oral for 5 days from day 0, 4 monkeys, follow-up until day 102 p.i. How it is done: Sporozoites were harvested from P. cynomolgi-infected mosquitoes, washed with phosphate-buffered saline (PBS), and diluted to 100,000 sporozoites (spz)/ml in PBS. One-milliliter aliquots of sporozoites were prepared and injected into monkeys via intravenous (i.v.) injection.
Monkeys were treated according to the schedule shown in Table 1 (stratification of treatment groups is given in the supplemental material). During treatment, monkeys were weighed daily and received the compound via gavage, followed by gastric feeding (weight change during treatment is shown in Table S6 in the supplemental material). […]
Parasitemia was closely monitored by thin-film analysis. […] Thin-film slides were stained with 20% Giemsa stain, and at least 50 fields (±20,000 erythrocytes [RBCs]) were analyzed with a bright-field microscope (×1,200 magnification). […] From day 23 p.i., monkeys were monitored daily for relapses. The KDU691 radical-cure (group 691-RC) treatment and control groups were monitored until the first relapse. The LMV599 control (group 599-C), radical-cure (group 599-RC), and PQ radical-cure (group PQ-RC) treatment groups were monitored until the second relapse or until day 100 p.i. […]
The prophylaxis groups were monitored daily until day 22 p.i. From day 22 to day 45 p.i., they were monitored three times a week, and from day 45 to day 105 p.i. (100 days after treatment), they were monitored twice a week. […]

Assay [4] deals with Plasmodium berghei luciferase sporozoites. Also on record: method as in PMID 25147620. The note with it: single dose of 7.5 mg/kg after sporozoite infection; cited from earlier work.

In the case of `CNC(=O)c1ccc(-c2cnc3cnc(C(=O)N(C)c4ccc(Cl)cc4)cn23)cc1` [KDU691], the IC50 was 180 ± 210 nM in assay [1]; 61 nM and 60 nM in assay [2]. In addition, the “causal prophylactic outcome (blood-stage parasitemia)” value in assay [3] is listed as “fully protective; also recorded: completely effective; also recorded: eradicated all liver-stage parasites, including hypnozoites”. The “causal prophylactic protection in mice” value in assay [4] was “complete protection”.
